From the NIST ThermoML archive (doi:10.1021/je5009334)

Assay: xn = mol fraction of the nth substance listed
Conditions: 101 kPa, Liquid; for speed of sound: Sing-around technique in a fixed-path interferometer; for mass density: Vibrating tube method

OCCc1ccccc1 [2-phenylethanol] + CCC(O)CO
Conditions	mass density [kg/m3]	speed of sound [m/s]
298.15 K, x1 = 0.1	1000.43	1461.6
298.15 K, x1 = 0.2	1002.46	1471.1
298.15 K, x1 = 0.3	1004.33	1479.4
298.15 K, x1 = 0.4	1006.16	1487.8
298.15 K, x1 = 0.5	1007.9	1495.7
298.15 K, x1 = 0.6	1009.62	1502.9
298.15 K, x1 = 0.7	1011.27	1509.7
298.15 K, x1 = 0.8	1012.87	1515.6
298.15 K, x1 = 0.9	1014.52	1521.3
298.15 K, x1 = 1	1016.14	1526.1
303.15 K, x1 = 0.1	996.641	1446.7
303.15 K, x1 = 0.2	998.651	1456.2
303.15 K, x1 = 0.3	1000.5	1464.1
303.15 K, x1 = 0.4	1002.32	1472.3
303.15 K, x1 = 0.5	1004.07	1480
303.15 K, x1 = 0.6	1005.79	1487.1
303.15 K, x1 = 0.7	1007.45	1494.1
303.15 K, x1 = 0.8	1009.06	1499.7
303.15 K, x1 = 0.9	1010.73	1505.3
303.15 K, x1 = 1	1012.39	1510.5
308.15 K, x1 = 0.1	992.825	1431.8
308.15 K, x1 = 0.2	994.816	1441.2
308.15 K, x1 = 0.3	996.652	1448.9
308.15 K, x1 = 0.4	998.462	1456.9
308.15 K, x1 = 0.5	1000.2	1464.5
308.15 K, x1 = 0.6	1001.93	1471.4
308.15 K, x1 = 0.7	1003.61	1478.4
308.15 K, x1 = 0.8	1005.25	1483.8
308.15 K, x1 = 0.9	1006.92	1489.5
308.15 K, x1 = 1	1008.61	1494.7
313.15 K, x1 = 0.1	988.976	1417.1
313.15 K, x1 = 0.2	990.951	1426.2
313.15 K, x1 = 0.3	992.775	1433.8
313.15 K, x1 = 0.4	994.579	1441.5
313.15 K, x1 = 0.5	996.32	1449
313.15 K, x1 = 0.6	998.053	1455.8
313.15 K, x1 = 0.7	999.73	1462.3
313.15 K, x1 = 0.8	1001.39	1468.1
313.15 K, x1 = 0.9	1003.09	1473.8
313.15 K, x1 = 1	1004.75	1479.2
318.15 K, x1 = 0.1	985.093	1402.3
318.15 K, x1 = 0.2	987.058	1411.3
318.15 K, x1 = 0.3	988.872	1418.7
318.15 K, x1 = 0.4	990.674	1426.3
318.15 K, x1 = 0.5	992.412	1433.5
318.15 K, x1 = 0.6	994.121	1440.5
318.15 K, x1 = 0.7	995.794	1446.4
318.15 K, x1 = 0.8	997.515	1452.4
318.15 K, x1 = 0.9	999.245	1458.1
318.15 K, x1 = 1	1000.93	1463.2
323.15 K, x1 = 0.1	981.261	1388.2
323.15 K, x1 = 0.2	983.126	1396
323.15 K, x1 = 0.3	984.949	1403.8
323.15 K, x1 = 0.4	986.752	1411.3
323.15 K, x1 = 0.5	988.495	1418.6
323.15 K, x1 = 0.6	990.215	1425.2
323.15 K, x1 = 0.7	991.945	1431.3
323.15 K, x1 = 0.8	993.644	1437.1
323.15 K, x1 = 0.9	995.386	1442.8
323.15 K, x1 = 1	997.075	1447.7
